The values below come from US20220107317A1, “COMPOSITIONS AND METHODS FOR DIAGNOSING AND TREATING CORONAVIRUS DISEASE 2019” (priority 2020, published 2022).

Test [1] deals with SARS-CoV-2 spike protein (Severe acute respiratory syndrome coronavirus 2, UniProt P0DTC2).
In test [2] the test system is nCoV-S Luc pseudovirus of SARS-CoV-2. The test is classed as cell-based.
For test [3], the target named is SARS-CoV-2 spike protein (SARS-CoV-2), P0DTC2.

In the case of “DLSGFVRPDPVIISSPLSTFFSDAGYKSLLKITMTQSTVPLNLIRVHLMVAVEG HLFQKSFQASPNLAYTFIWDKTDAYGQRVYGLSDAVVSVGFEYETCPSLILW EKRTALLQGFELD [T2 peptide]”, in test [1], the biosensing sensitivity worked out at 0.1 ng in 1 μL per test and the “concentration of SARS-CoV-2 spike protein at which binding activity is shown” value worked out at 0.1 pM. Moreover, the “inhibition of infection of OECM1 cells” value in test [2] was “significantly inhibited”.

B1: T2 peptide (peptide)
peptide: DLSGFVRPDPVIISSPLSTFFSDAGYKSLLKITMTQSTVPLNLIRVHLMVAVEGHLFQKSFQASPNLAYTFIWDKTDAYGQRVYGLSDAVVSVGFEYETCPSLILWEKRTALLQGFELD
modifications: not checked
On to B1, for which, in test [3], the biosensing sensitivity (ng in 1 µL per test) amounted to 0.1 and the lowest spike protein concentration showing binding activity was found to be 0.1 pM.
